The conditions of series [1]: cited from earlier work; for pH: amino acid; for Solubility: at 25° C.
For series [2] the following is noted: cited from earlier work; for pH: pH is altered by concentration and temperature; for Solubility: solubility is altered by temperature.
Series [3] is described as follows: Calculation of Essential pH and Stability Range Factor (SRF). The series is classed as physicochemical. To be noted: calculated from pKa; read-out: Stability Range Factor (SRF), pH range (pKa + 0.7) to 10.9. The procedure:
A proton pump inhibitor dose within its calculated pHE range is designed to ensure sufficient proton pump inhibitor protection from acid degradation such that delivery to and action upon proton pumps occur. In one desirable embodiment, the pHE is the sum of the pKa of a given proton pump inhibitor plus about 0.7.
SRF is calculated based on the desirable shelf-life (or a dwell time), the environmental pH and the amount of acid expected to be encountered, along with a knowledge of the time of exposure expected after the drug is administered and before the drug reaches the blood (i.e., the dwell time).
The upper limit of the SRF is a function of the tolerability of the gastrointestinal mucosa to alkaline substances, which is determined by the Formulation pH and the concentration of alkaline material presented. […] It is acknowledged that the amount of buffer is an important aspect of the tissue destructive potential of an alkaline substance.
Examples of pHE calculations with SRF for specific proton pump inhibiting agents are as follows:
pHE of proton pump inhibitor=pKa of proton pump inhibitor+0.7.

The conditions of series [4]: acidic stomach / gastric environment (pH of 1.2 where stated), upon complete dissolution; cited from earlier work.
The conditions of series [5]: cited from earlier work.
Series [6] concerns gastric pH. Description: Example IX: gastric pH of nasogastric aspirate (pH paper) in mechanically ventilated critically ill patients. In kind it is in vivo, human. To be noted: mean ± standard deviation where given. As for the experimental part:
Each dose was administered through the nasogastric tube.
Gastric pH was measured immediately after aspirating gastric contents through the nasogastric tube. pH paper (pHydrion improved pH papers, Microessential Laboratory, Brooklyn, N.Y.) was used to measure gastric aspirate pH. The pH range of the test strips was 1 to 11, in increments of one pH unit. Gastric pH was measured before the initiation of omeprazole solution therapy, immediately before each dose, and every four hours between doses.

Series [7] in a line: clinical. The settings on record: human, plasma, 40 mg.
Series [8] can be described thus: clinical. The settings on record: human, plasma, oral, 40 mg.
For series [9], the system named is gastric pH. Description: Example XIV: continuous gastric pH monitoring (Zinetics probe) after omeprazole suspension. To be noted: from 1 h after administration for the entire 24-h study period; both routes.
Series [10] in a line: Example XV: omeprazole concentration vs time after single dose SOS in patients at risk for SRMD (HPLC). To be noted: single dose SOS 40 mg.
Series [11] relates to stress-related mucosal bleeding. Description: Example IX: clinically significant stress-related mucosal bleeding, mortality, pneumonia and adverse events in mechanically ventilated critically ill patients.

Where “and” joins values, the source holds several entries; their conditions need not be identical. Equal values may be shown once. Entries after “also recorded” stand apart in the source; their conditions may differ. Read-outs that look alike come from different tables or passages of the source. A value given as a limit tells only on which side of the number the result lay.

We go through 40 molecules from patent publication US20050004171A1, “Novel substituted benzimidazole dosage forms and method of using same” (priority 1996, published 2005).

Take `C[C@H](N)C(=O)O` [Alanine]: in series [1], the pH was 6 and the Solubility is reported as 16.65 g/100 g H2O.
Consider `N=C(N)NCCC[C@H](N)C(=O)O` [Arginine], for which the pH in series [1] was 11.15.
Turning to `NC(=O)C[C@H](N)C(=O)O` [Asparagine], in series [1], the pH is 5.41 and the Solubility is reported as 3.53 g/100 g H2O.
Consider `N[C@@H](CC(=O)O)C(=O)O` [Aspartic Acid], for which the pH in series [1] was 2.77.
For the molecule `O=C([O-])CC(O)(CC(=O)[O-])C(=O)[O-].O=C([O-])CC(O)(CC(=O)[O-])C(=O)[O-].[Ca+2].[Ca+2].[Ca+2]` [Calcium citrate], the pH in [2] is reported as 6.8.
For `CC(O)C(=O)[O-].CC(O)C(=O)[O-].[Ca+2]` (centres unmarked) [Calcium lactate], the pH in series [2] was 7.
For `N[C@@H](CS)C(=O)O` [Cysteine], in series [1], the pH was 5.02 and the Solubility entry is listed as “Very”.
`O=P([O-])([O-])O.[Na+].[Na+]` [Dibasic sodium phosphate]: the pH in series [2] is recorded as 8.6-9.3.
`N[C@@H](CCC(=O)O)C(=O)O` [Glutamic Acid]: in series [1], the pH is given as 3.22.
Regarding `NC(=O)CC[C@H](N)C(=O)O` [Glutamine], in series [1], the Solubility is on record as 2.5 g/100 g H2O.
Consider `NCC(=O)O` [Glycine], for which the pH in series [1] is recorded as 5.97.
`N[C@@H](Cc1c[nH]cn1)C(=O)O` [Histidine]: in series [1], the pH is 7.47 and the Solubility was 4.19 g/100 g H2O.
Consider `CC[C@H](C)[C@H](N)C(=O)O` [Isoleucine], for which, in series [1], the pH was 5.94 and the Solubility was 4.117 g/100 g H2O.
For orientation: pKa means the pH at which an ionisable group is half protonated. Take `Cc1c(OCC(F)(F)F)ccnc1C[S+]([O-])c1nc2ccccc2[nH]1` (centres unmarked) [Lansoprazole, lansoprazole]: the Stability Range Factor (pH range) in series [3] was 4.8 to 10.9. In series [4], the “time in which drug could undergo 50% degradation” value was 2 min. Further, in [5], the Solubility in water entry is reported as “very slightly” and the pKa result was “Lansoprazole has a pKa of 4.1; thus, the Essential pH = 4.1 + 0.7 ≧ 4.8”. For the same molecule, the Solubility in water result in [5] (listed as Lansoprazole base) is listed as “very slightly soluble in water”.
Turning to `CC(C)C[C@H](N)C(=O)O` [Leucine], the Solubility in series [1] is listed as 2.426 g/100 g H2O.
As for `NCCCC[C@H](N)C(=O)O` [Lysine], in series [1], the pH is reported as 9.59 and the Solubility entry is on record as “Very”.
`CC(O)C(=O)[O-].CC(O)C(=O)[O-].[Mg+2]` (centres unmarked) [Magnesium lactate]: the pH in series [2] is 5.5-7.5.
For `[O]=[Mg]` [Magnesium oxide], in series [2], the pH is given as 9.5-10.5 and the Solubility is on record as 0.62 mg/100 mL.
Regarding `CSCC[C@H](N)C(=O)O` [Methionine], in [1], the pH was 5.74 and the Solubility is listed as 3.381 g/100 g H2O.
As for `COc1ccc2[nH]c([S+]([O-])Cc3ncc(C)c(OC)c3C)nc2c1` (centres unmarked) [Omeprazole], the “gastric pH four hours after omeprazole was first administered (mean)” value with gastric pH [6] (40 mg omeprazole solution per ng tube) is 7.1 and 7.1±1.1. Also, in the series with gastric pH [6], the “lowest gastric pH after starting omeprazole (mean)” value is 5.6 and 5.6±1.3; the “mean gastric pH after starting omeprazole (mean)” value is 6.8 and 6.8±0.6. Also, the Stability Range Factor (pH range) in series [3] was 4.6 to 10.9. The “time in which drug could undergo 50% degradation” value in [4] is reported as “less than 3 minutes”. In series [5], the Solubility in water result is given as “slightly soluble” and the pKa result is “Omeprazole has a pKa of 3.9; thus, the Essential pH = 3.9 + 0.7 ≧ 4.6”. Also, the Solubility in water entry in [5] (listed as Omeprazole base) is on record as “only slightly soluble in water”. In “clinical [7]”, this molecule gave a concentration at 3 min of 27.5 ng/mL, a concentration at 5 min of 73.5 ng/mL and a concentration at 8 h of 232 ng/mL. The molecule further gave a concentration at 75 min in “clinical [7]” (oral) of 610 ng/mL. For the same molecule, the concentration at 0 h in “clinical [8]” worked out at 0 ng/mL. Besides, the “mean intragastric pH values” in the series on gastric pH [9] is more than 4. Further, the “absorption as measured by Area Under the Curve (AUC) compared to enteric-coated form” value in series [10] was “did not appear to be significantly decreased”. Moreover, the “adverse event or drug interaction attributable to omeprazole” value in [11] (high-risk population) is given as “No patient; also recorded: No adverse events or drug interaction”. Also, the incidence of pneumonia result in series [11] (nine of 75 patients) was “twelve”.
As to `COc1ccnc(C[S+]([O-])c2nc3ccc(OC(F)F)cc3[nH]2)c1OC` (centres unmarked) [Pantoprazole sodium], the “time in which drug could undergo 50% degradation” value in [4] is reported as “less than 5 minutes”. Moreover, the results for the Solubility in water result in series [5] and in [5] (listed as pantoprazole sodium) were “very soluble” and “very soluble in water”, respectively. Further, the pKa in [5] was 3.
Take `N[C@@H](Cc1ccccc1)C(=O)O` [Phenylalanine]: in [1], the pH is listed as 5.48 and the Solubility is listed as 2.965 g/100 g H2O.
Take `O=C(O)[C@@H]1CCCN1` [Proline]: the pH in [1] was 6.30.
For `COCCCOc1ccnc(C[S+]([O-])c2nc3ccccc3[nH]2)c1C` (centres unmarked) [Rabeprazole sodium], in series [4], the “time in which drug could undergo 50% degradation” value was “less than 1.5 minutes”. Also, in series [5], the Solubility in water result is given as “very soluble in water” and the pKa is 4.9.
Consider `N[C@@H](CO)C(=O)O` [Serine], for which the pH in series [1] is 5.68.
Turning to `O=C([O-])CC(O)(CC(=O)[O-])C(=O)[O-].[Na+].[Na+].[Na+]` [Sodium citrate], the pH in series [2] was 5.
Take `O=C([O-])[C@H](O)[C@@H](O)[C@H](O)[C@H](O)CO.[Na+]` [Sodium gluconate]: the pH in series [2] is listed as 6-8.
Consider `CC(O)C(=O)[O-].[Na+]` (centres unmarked) [Sodium lactate], for which the pH in [2] was 7.
Consider `O=P([O-])([O-])[O-].[Na+].[Na+].[Na+]` [Sodium phosphate (tribasic)], for which the pH in series [2] was 10.7-12.1.
In the case of `O=P(O)(O)OP(=O)(O)OP(=O)(O)O` [Sodium tripolyphosphate], in [2], the pH was 9.7-10 and the Solubility is on record as 6 gm/100 mL.
For the molecule `C[C@@H](O)[C@H](N)C(=O)O` [Threonine], in [1], the pH was 5.64.
In the case of `N[C@@H](Cc1c[nH]c2ccccc12)C(=O)O` [Tryptophan], in series [1], the pH is 5.89 and the Solubility was 1.136 g/100 g H2O.
As to `N[C@@H](Cc1ccc(O)cc1)C(=O)O` [Tyrosine], in [1], the pH is reported as 5.66.
Regarding `CC(C)[C@H](N)C(=O)O` [Valine], in series [1], the pH is listed as 5.96 and the Solubility is on record as 8.85 g/100 g H2O.
`COc1ccc2nc([S@@+]([O-])Cc3ncc(C)c(OC)c3C)[nH]c2c1` [esomeprazole]: the pKa entry in [5] is “Essential pH (esomeprazole pKa = 3.9 + 0.7 ≧ 4.6)”.
With `COc1ccnc(C[S+]([O-])c2nc3ccc(OC(F)F)cc3[nH]2)c1OC` (centres unmarked) [pantoprazole], the Stability Range Factor (pH range) in series [3] is 3.7 to 10.9.
Consider `COCCCOc1ccnc(C[S+]([O-])c2nc3ccccc3[nH]2)c1C` (centres unmarked) [rabeprazole], for which, in series [3], the Stability Range Factor (pH range) was 5.6 to 10.9.
As to Calcium gluconate, the pH in series [2] is reported as 7.4.
Calcium glycerophosphate: the pH in series [2] is reported as 7.
Regarding Magnesium gluconate, the pH in series [2] is 7.3.
